# Data as given in ChEMBL document CHEMBL3232889, “Identification of novel SIRT2-selective inhibitors using a click chemistry approach” (Bioorg Med Chem Lett, 2014).
# Active and inactive are the calls of the source.
# Target: T1, NAD-dependent protein deacetylase sirtuin-2 (Homo sapiens, UniProt Q8IXJ6)
# T1 sequence (Q8IXJ6 whole entry): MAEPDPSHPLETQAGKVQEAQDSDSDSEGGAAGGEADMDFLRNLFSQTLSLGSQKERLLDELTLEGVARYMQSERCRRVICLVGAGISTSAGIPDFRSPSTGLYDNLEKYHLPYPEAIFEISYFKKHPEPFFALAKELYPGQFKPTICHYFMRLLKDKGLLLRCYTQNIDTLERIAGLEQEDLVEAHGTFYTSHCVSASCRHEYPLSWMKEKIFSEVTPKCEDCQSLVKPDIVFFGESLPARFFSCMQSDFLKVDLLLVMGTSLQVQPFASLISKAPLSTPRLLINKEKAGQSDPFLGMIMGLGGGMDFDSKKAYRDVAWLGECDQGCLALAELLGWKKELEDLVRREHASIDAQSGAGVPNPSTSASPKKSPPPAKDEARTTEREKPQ
# Assay: Inhibition of human recombinant SIRT2 using Fluor-de-Lys as substrate incubated for 60 mins prior to substrate addition measured after 60 mins by fluorometric analysis
# Conditions: not given
row,IC50 [µM],SMILES
1,6.3,NC(=O)c1ccccc1Nc1ccc(-c2cn(Cc3ccccc3)nn2)cc1
2,5.3,NC(=O)c1ccccc1Nc1cccc(-c2cn(CCC3CCCC3)nn2)c1

# Target: T2, NAD-dependent protein deacetylase sirtuin-1 (Homo sapiens, UniProt Q96EB6)
# T2 sequence (Q96EB6 whole entry): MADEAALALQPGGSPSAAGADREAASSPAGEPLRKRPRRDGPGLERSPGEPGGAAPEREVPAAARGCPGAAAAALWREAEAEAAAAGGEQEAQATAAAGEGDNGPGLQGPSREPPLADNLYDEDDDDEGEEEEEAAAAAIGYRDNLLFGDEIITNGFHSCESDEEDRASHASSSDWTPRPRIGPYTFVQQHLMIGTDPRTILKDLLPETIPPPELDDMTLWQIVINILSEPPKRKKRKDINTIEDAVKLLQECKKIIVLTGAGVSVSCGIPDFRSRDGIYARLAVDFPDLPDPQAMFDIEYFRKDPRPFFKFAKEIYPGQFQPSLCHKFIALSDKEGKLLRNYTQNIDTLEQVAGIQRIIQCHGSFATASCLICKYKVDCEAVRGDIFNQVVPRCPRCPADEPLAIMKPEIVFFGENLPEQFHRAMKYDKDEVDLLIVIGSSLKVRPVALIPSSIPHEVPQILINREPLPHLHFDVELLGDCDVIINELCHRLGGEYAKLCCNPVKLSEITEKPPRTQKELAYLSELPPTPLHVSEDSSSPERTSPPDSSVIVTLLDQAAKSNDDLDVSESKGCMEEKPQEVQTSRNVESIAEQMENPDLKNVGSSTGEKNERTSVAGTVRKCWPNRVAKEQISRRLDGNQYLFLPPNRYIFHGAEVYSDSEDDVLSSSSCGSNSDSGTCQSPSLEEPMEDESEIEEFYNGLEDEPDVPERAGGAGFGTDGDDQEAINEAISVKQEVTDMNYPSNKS
# Assay: Inhibition of human recombinant SIRT1 using Fluor-de-Lys as substrate incubated for 60 mins prior to substrate addition measured after 60 mins by fluorometric analysis
# Conditions: not given
row,IC50 [µM],SMILES
1,> 100,NC(=O)c1ccccc1Nc1ccc(-c2cn(Cc3ccccc3)nn2)cc1
2,> 100,NC(=O)c1ccccc1Nc1cccc(-c2cn(CCC3CCCC3)nn2)c1

# Target: T3, NAD-dependent protein deacetylase sirtuin-3, mitochondrial (Homo sapiens) (UniProt Q9NTG7)
# T3 sequence (whole entry): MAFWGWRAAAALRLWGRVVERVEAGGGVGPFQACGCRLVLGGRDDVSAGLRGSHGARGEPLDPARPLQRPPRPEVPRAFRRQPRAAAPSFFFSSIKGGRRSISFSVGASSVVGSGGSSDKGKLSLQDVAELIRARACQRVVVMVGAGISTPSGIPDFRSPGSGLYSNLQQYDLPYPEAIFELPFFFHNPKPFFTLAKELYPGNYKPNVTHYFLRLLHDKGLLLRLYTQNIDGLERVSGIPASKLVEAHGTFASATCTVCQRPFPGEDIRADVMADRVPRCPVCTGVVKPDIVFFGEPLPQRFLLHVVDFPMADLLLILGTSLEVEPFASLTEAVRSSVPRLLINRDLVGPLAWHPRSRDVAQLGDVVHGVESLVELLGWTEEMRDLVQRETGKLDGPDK
# Assay: Inhibition of human recombinant SIRT3 using Fluor-de-Lys as substrate at 10 uM incubated for 60 mins prior to substrate addition measured after 60 mins by fluorometric analysis
# Conditions: not given
row,inhibition,SMILES
1,inactive,NC(=O)c1ccccc1Nc1ccc(-c2cn(Cc3ccccc3)nn2)cc1
2,inactive,NC(=O)c1ccccc1Nc1cccc(-c2cn(CCC3CCCC3)nn2)c1

# Target: T4, NAD-dependent protein deacetylase sirtuin-3, mitochondrial (Homo sapiens, UniProt Q9NTG7)
# T4 sequence (Q9NTG7 whole entry): T3 sequence (whole entry)
# Assay: Inhibition of human recombinant SIRT3 using Fluor-de-Lys as substrate incubated for 60 mins prior to substrate addition measured after 60 mins by fluorometric analysis
# Conditions: not given
row,IC50 [µM],SMILES
1,> 100,NC(=O)c1ccccc1Nc1ccc(-c2cn(Cc3ccccc3)nn2)cc1
2,> 100,NC(=O)c1ccccc1Nc1cccc(-c2cn(CCC3CCCC3)nn2)c1

# Target: T5, NAD-dependent protein deacetylase sirtuin-1 (Homo sapiens) (UniProt Q96EB6)
# T5 sequence (whole entry): T2 sequence (Q96EB6 whole entry)
# Assay: Inhibition of human recombinant SIRT1 using Fluor-de-Lys as substrate at 10 uM incubated for 60 mins prior to substrate addition measured after 60 mins by fluorometric analysis
# Conditions: not given
row,inhibition,SMILES
1,inactive,NC(=O)c1ccccc1Nc1ccc(-c2cn(Cc3ccccc3)nn2)cc1
2,inactive,NC(=O)c1ccccc1Nc1cccc(-c2cn(CCC3CCCC3)nn2)c1

# Target: T6, NAD-dependent protein deacetylase sirtuin-2 (Homo sapiens) (UniProt Q8IXJ6)
# T6 sequence (whole entry): T1 sequence (Q8IXJ6 whole entry)
# Conditions: at 10 µM
# Description: Inhibition of human recombinant SIRT2 using Fluor-de-Lys as substrate at 10 uM incubated for 60 mins prior to substrate addition measured after 60 mins by fluorometric analysis
row,SMILES,inhibition
1,[N-]=[N+]=NCCN1CCOCC1,Active
2,[N-]=[N+]=NCC1CCCCC1,Active
3,Cc1cccc(CCN=[N+]=[N-])c1,Active
4,COc1ccccc1CCN=[N+]=[N-],Active
5,Cc1cccc(C)c1NC(=O)CN=[N+]=[N-],Active
6,[N-]=[N+]=NCCc1ccccc1C(F)(F)F,Active
7,[N-]=[N+]=Nc1ccccc1,Active
8,C#Cc1cccc(Nc2ccccc2C(N)=O)c1,Active
9,Cc1ccc(N=[N+]=[N-])cc1,Active
10,[N-]=[N+]=NCCc1cccc2ccccc12,Active
11,[N-]=[N+]=Nc1ccc(Br)cc1,Active
12,COc1cccc(CCN=[N+]=[N-])c1,Active
13,Cc1ccc(CCN=[N+]=[N-])cc1,Active
14,[N-]=[N+]=NCCc1cccc(F)c1,Active
15,[N-]=[N+]=NCc1ccccc1,Active
16,COc1ccc(N=[N+]=[N-])cc1,Active
17,Cc1ccccc1CCN=[N+]=[N-],Active
18,[N-]=[N+]=NCC12CC3CC(CC(C3)C1)C2,Active
19,NC(=O)c1ccccc1Nc1ccc(-c2cn(Cc3ccccc3)nn2)cc1,Active
20,[N-]=[N+]=NCCc1ccc([N+](=O)[O-])cc1,Active
21,[N-]=[N+]=NCS(=O)(=O)c1ccccc1,Active

row,SMILES,inhibition
1,[N-]=[N+]=NCCc1ccc2ccccc2c1,Active
2,[N-]=[N+]=NCc1cccc2ccccc12,Active
3,[N-]=[N+]=Nc1ccc(N)cc1,Active
4,[N-]=[N+]=Nc1ccc(I)cc1,Active
5,[N-]=[N+]=NCCC12CC3CC(CC(C3)C1)C2,Active
6,[N-]=[N+]=N/C=C/c1ccccc1,Active
7,[N-]=[N+]=NCCc1ccc(F)cc1,Active
8,[N-]=[N+]=NCCCc1ccccc1,Active
9,[N-]=[N+]=NCCc1cccc(Cl)c1,Active
10,[N-]=[N+]=NCCc1ccccc1F,Active
11,[N-]=[N+]=NCCC1CCCC1,Active
12,[N-]=[N+]=NCCc1cccc(C(F)(F)F)c1,Active
13,Cc1ncsc1CCN=[N+]=[N-],Active
14,[N-]=[N+]=Nc1ccc(O)cc1,Active
15,[N-]=[N+]=NCCc1ccccn1,Active
16,N#C/C(=C\c1ccc(-c2cc(Cl)ccc2Cl)o1)C(=O)Nc1cccc2ncccc12,Active
17,COc1ccc(CCN=[N+]=[N-])cc1,Active
18,[N-]=[N+]=NCc1ccc2ccccc2c1,Active
19,[N-]=[N+]=Nc1cccc2ccccc12,Active
20,[N-]=[N+]=NCCc1ccsc1,Active
21,[N-]=[N+]=Nc1ccc(F)cc1,Active

row,SMILES,inhibition
1,[N-]=[N+]=Nc1ccccc1-c1ccccc1,Active
2,[N-]=[N+]=NCCc1ccccc1Cl,Active
3,[N-]=[N+]=NCCc1ccc(C(F)(F)F)cc1,Active
4,[N-]=[N+]=NC[S+]([O-])c1ccccc1 (stereo unspecified),Active
5,Cc1ccc(N=[N+]=[N-])cc1C,Active
6,[N-]=[N+]=NCCc1ccccc1[N+](=O)[O-],Active
7,[N-]=[N+]=NCCCCCc1ccccc1,Active
8,[N-]=[N+]=NCCc1ccc(Cl)cc1,Active
9,[N-]=[N+]=NCC(=O)c1ccccc1,Active
10,COc1ccc(CN=[N+]=[N-])cc1,Active
11,[N-]=[N+]=NCCc1ccccc1,Active
12,C#Cc1ccc(Nc2ccccc2C(N)=O)cc1,Active
13,[N-]=[N+]=NCCC1CCCCC1,Active
14,[N-]=[N+]=NCSc1ccccc1,Active
15,[N-]=[N+]=NCCc1c[nH]c2ccccc12,Active
16,[N-]=[N+]=NCc1cccc(-c2ccccc2)c1,Active
17,[N-]=[N+]=NCC(=O)Nc1ccc(F)cc1,Active
18,NC(=O)c1ccccc1Nc1cccc(-c2cn(CCC3CCCC3)nn2)c1,Active
19,[N-]=[N+]=NCc1ccc(-c2ccccc2)cc1,Active
